According to US9884854B2, “N-[(pyrimidinylamino)propanyl]-and N[(pyrazinylamino)proppanyl]arylcarboxamides” (Boehringer Ingelheim International GmbH, priority 2016, dated 2018):

Assays:
[1] = Assay C: metabolic stability in human liver microsomes (Human MST); assay type: in vitro ADME; details: pooled human liver microsomes, pH 7.6, 1 μM compound, 37° C., read-out: Human MST t1/2
Description: Stability in human liver microsomes refers to the susceptibility of compounds to biotransformation in the context of selecting and/or designing drugs with favorable pharmacokinetic properties. The primary site of metabolism for many drugs is the liver. Human liver microsomes contain the cytochrome P450s (CYPs), and thus represent a model system for studying drug metabolization in vitro. Enhanced stability in human liver microsomes is associated with several advantages, including increased bioavailability and longer half-life, which can enable lower and less frequent dosing of patients. Thus, enhanced stability in human liver microsomes is a favorable characteristic for compounds that are to be used for drugs.
C. Assessment of Metabolic Stability in Human Liver Microsomes (Human MST)
The metabolic stability of the compounds according to the invention may be investigated as follows:
The metabolic degradation of the test compound is assayed at 37° C. with pooled human liver microsomes. The final incubation volume of 100 μL per time point contains TRIS buffer pH 7.6 at room temperature (0.1 M), MgCl2 (5 mM), microsomal protein (1 mg/mL) and the test compound at a final concentration of 1 μM. Following a short pre-incubation period at 37° C., the reactions are initiated by addition of beta-nicotinamide adenine dinucleotide phosphate, reduced form (NADPH, 1 mM), and terminated by transferring an aliquot into solvent after different time points. After centrifugation (10000 g, 5 min), an aliquot of the supernatant is assayed by LC-MS/MS for the amount of parent compound. The half-life (t1/2) is determined by the slope of the semi-logarithmic plot of the concentration-time profile.

human MDR1 P-gp = experiment: Assay D: efflux in MDCK cells transfected with the human MDR1 gene; assay type: in vitro ADME, canine; details: dog; MDCK-MDR1 monolayers, pH 7.4, 37° C.; read-out: MDCK efflux ratio (BA/AB)
Method: The MDCK assay provides information on the potential of a compound to pass the blood brain barrier. Permeability measurements across polarized, confluent MDCK-MDR1 cell monolayers grown on permeable filter supports are used as an in vitro absorption model: apparent permeability coefficients (PE) of the compounds across the MDCK-MDR1 cell monolayers are measured (pH 7.4, 37° C.) in apical-to-basal (AB) and basal-to-apical (BA) transport direction. The AB permeability (PEAB) represents drug absorption from the blood into the brain and the BA permeability (PEBA) drug efflux from the brain back into the blood via both, passive permeability as well as active transport mechanisms mediated by efflux and uptake transporters that are expressed on the MDCK-MDR1 cells, predominantly by the overexpressed human MDR1 P-gp. Identical or similar permeabilities in both transport directions indicate passive permeation, vectorial permeability points to additional active transport mechanisms. Higher PEBA than PEAB (PEBA/PEAB>5) indicates the involvement of active efflux mediated by MDR1 P-gp, which might compromises the goal to achieve sufficient brain exposure. Therefore this assay provides valuable support for selection of compounds applicable for further in vivo testing. High permeability not limited by efflux at the blood brain barrier is a favourable characteristic for compounds that are to be used for drugs acting primarily in the CNS
D. Assessment of Efflux in Madin-Darby Canine Kidney (MDCK) Cells Transfected with the Human MDR1 Gene
Apparent permeability coefficients (PE) of the compounds across the MDCK-MDR1 cell monolayers are measured (pH 7.4, 37° C.) in apical-to-basal (AB) and basal-to-apical (BA) transport direction. AB permeability (PEAB) represents drug absorption from the blood into the brain and BA permeability (PEBA) drug efflux from the brain back into the blood via both passive permeability as well as active transport mechanisms mediated by efflux and uptake transporters that are expressed on the MDCK-MDR1 cells, predominantly by the overexpressed human MDR1 P-gp. The compounds are assigned to permeability/absorption classes by comparison of the AB permeabilities with the AB permeabilities of reference compounds with known in vitro permeability and oral absorption in the human. Identical or similar permeabilities in both transport directions indicate passive permeation, vectorial permeability points to additional active transport mechanisms. Higher PEBA than PEAB indicates the involvement of active efflux mediated by MDR1 P-gp. Active transport is concentration-dependently saturable.
MDCK-MDR1 cells (1-2×10e5 cells/1 cm2 area) are seeded on filter inserts (Costar transwell polycarbonate or PET filters, 0.4 μm pore size) and cultured (DMEM) for 7 days. Subsequently, the MDR1 expression is boosted by culturing the cells with 5 mM sodium butyrate in full medium for 2 days. Compounds are dissolved in appropriate solvent (like DMSO, 1-20 mM stock solutions). Stock solutions are diluted with HTP-4 buffer (128.13 mM NaCl, 5.36 mM KCl, 1 mM MgSO4, 1.8 mM CaCl2, 4.17 mM NaHCO3, 1.19 mM Na2HPO4×7H2O, 0.41 mM NaH2PO4×H2O, 15 mM HEPES, 20 mM glucose, 0.25% BSA, pH 7.4) to prepare the transport solutions (0.1-300 μM compound, final DMSO<=0.5%). The transport solution (TL) is applied to the apical or basolateral donor side for measuring A-B or B-A permeability (3 filter replicates), respectively. The receiver side contains the same buffer as the donor side. Samples are collected at the start and end of experiment from the donor and at various time intervals for up to 2 hours also from the receiver side for concentration measurement by HPLC-MS/MS or scintillation counting. Sampled receiver volumes are replaced with fresh receiver solution.

Row | SMILES | half-life at 1 μM [1] | efflux ratio (human MDR1 P-gp)
1 | CCN(C(=O)c1ccccc1-n1nccn1)[C@@H](C)CNc1ncc(C(F)(F)F)cn1 [Example 1] | 120 min | < 3
2 | CCN(C(=O)c1nc(C)ccc1-n1nccn1)[C@@H](C)CNc1ncc(C(F)(F)F)cn1 [Example 9] | 100 min | < 3
3 | CCN(C(=O)c1cnc(C)nc1-c1ccccc1)[C@@H](C)CNc1ncc(C(F)(F)F)cn1 [Example 17] | > 120 min | < 3
4 | CCN(C(=O)c1cccc(F)c1-n1nccn1)[C@@H](C)CNc1ncc(C(F)(F)F)cn1 [Example 18] | > 120 min | < 3
